From patent US9029337B2, “Modulation of factor 7 expression” (Isis Pharmaceuticals, Inc., priority 2007, dated 2015)
Strand notation (5' to 3'): a small letter for the sugar, then the base; units joined by * are phosphorothioate-linked, units joined directly phosphodiester-linked; [ ] holds rarer units or linkages, { } end groups; capitals alone tell only the bases. e = 2'-O-(2-methoxyethyl) (MOE); [5mC] = 5-methylcytosine; d = 2'-deoxy (DNA)

How the values were obtained:
Format in all cases: cell-based
human Factor 7 mRNA [1] = experiment: Antisense inhibition of human Factor 7 mRNA in HepB3 cells, 50 nM antisense oligonucleotide, lipofectin; details: for % Inhibition of human Factor 7 mRNA levels: gapmers targeted to nucleobases 4868 to 4899 of SEQ ID NO: 1, Table 8
How it was run: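 4,000 cells/well; ~24 h exposure; RNA isolated; probe set RTS 2927; normalised to RIBOGREEN® total RNA; % inhibition vs untreated.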

human Factor 7 mRNA [2] = experiment: Dose-dependent antisense inhibition of human Factor 7 in HepB3 cells, lipofectin; details: HepB3 cells, approx. 16 hours (Table 14)
Method: Cells were plated at a density of 4,000 cells per well and treated with lipofectin reagent with 3.125 nM, 6.25 nM, 12.5 nM, 25 nM, 50 nM, and 100 nM concentrations of antisense oligonucleotide, as indicated in Table 3. After a treatment period of approximately 16 hours, RNA was isolated from the cells and Factor 7 mRNA levels were measured by real-time RT-PCR, as described herein. Human Factor 7 primer probe set RTS 2927 (forward sequence: […], incorporated herein as SEQ ID NO: 164; reverse sequence: […], incorporated herein as SEQ ID NO: 165; probe sequence: TGGGTGGTCTCCGCGGCCX, incorporated herein as SEQ ID NO: 166) was used to measure mRNA levels. Factor 7 mRNA levels were adjusted according to total RNA content as measured by RIBOGREEN®. Results are presented as percent inhibition of Factor 7, relative to untreated control cells.
Cells were plated at a density of 4,000 cells per well and transfected using lipofectin reagent with 6.25 nM, 12.5 nM, 25.0 nM, 50.0 nM, and 100.0 nM concentrations of antisense oligonucleotide, as indicated in Table 7. After a treatment period of approximately 16 hours, RNA was isolated from the cells and Factor 7 mRNA levels were measured by real-time RT-PCR, as described herein. Human Factor 7 primer probe set RTS 2927 was used to measure mRNA levels. Factor 7 mRNA levels were adjusted according to total RNA content as measured by RIBOGREEN®. Results are presented as percent inhibition of Factor 7, relative to untreated control cells.
(§1) Cells were plated at a density of 4,000 cells per well and transfected using lipofectin reagent with 3.125 nM, 6.25 nM, 12.5 nM, 25 nM, 50 nM, and 100 nM concentrations of antisense oligonucleotide, as specified in Table 14. After a treatment period of approximately 16 hours, RNA was isolated from the cells and Factor 7 mRNA levels were measured by quantitative real-time PCR. Human Factor 7 primer probe set RTS 2927 was used to measure mRNA levels. Factor 7 mRNA levels were adjusted according to total RNA content, as measured by RIBOGREEN®. Results are presented as percent inhibition of Factor 7, relative to untreated control cells.

human Factor 7 mRNA [3] = experiment: Dose-dependent antisense inhibition of human Factor 7 in HepB3 cells, electroporation
Method: as §1, with “The gapmers were also transfected via electroporation and their dose-dependent inhibition of human Factor 7 mRNA was measured. Cells” for “Cells”, “20,000” for “4,000”, “via electroporation” for “using lipofectin reagent”, “μM,” for “nM,”, “μM” for “nM”, “15.” for “14.”
Cells were plated at a density of 20,000 cells per well and transfected via electroporation with 3.125 μM, 6.25 μM, 12.5 μM, 25 μM, 50 μM, and 100 μM concentrations of antisense oligonucleotide, as specified in […]. After a treatment period of approximately 16 hours, RNA was isolated from the cells and human Factor 7 mRNA levels were measured by quantitative real-time PCR. Human Factor 7 primer probe set RTS 2927 was used to measure mRNA levels. Factor 7 mRNA levels were adjusted according to total RNA content, as measured by RIBOGREEN®. Results are presented as percent inhibition of Factor 7, relative to untreated control cells.

human Factor 7 mRNA [4] = experiment: Antisense inhibition of human Factor 7 with short (14-mer) oligonucleotides in HepB3 cells, electroporation 1,000 nM; details: electroporation, 1,000 nM antisense oligonucleotide, approximately 24 hours, Factor 7 mRNA relative to untreated control cells
How it was run: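 14-mer 2-10-2 MOE gapmers (full phosphorothioate, 5-methyl-C) electroporated at 1,000 nM into HepB3 cells at 20,000 cells/well. After ~24 h, Factor 7 mRNA by real-time RT-PCR, normalized to RiboGreen total RNA. Reported as % inhibition relative to untreated cells.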

[5] = 3.125 μM, approx. 16 hours (Table 15, Example 7)
[6] = 6.25 μM, approx. 16 hours (Table 15, Example 7)
[7] = 12.5 μM, approx. 16 hours (Table 15, Example 7)
[8] = 25 μM, approx. 16 hours (Table 15, Example 7)
[9] = 50 μM, approx. 16 hours (Table 15, Example 7)
[10] = 100 μM, approx. 16 hours (Table 15, Example 7)
[11] = 3.125 μM, approx. 16 hours (Table 16, Example 8 confirmation)
[12] = 6.25 μM, approx. 16 hours (Table 16, Example 8 confirmation)
[13] = 12.5 μM, approx. 16 hours (Table 16, Example 8 confirmation)
[14] = 25 μM, approx. 16 hours (Table 16, Example 8 confirmation)
[15] = 50 μM, approx. 16 hours (Table 16, Example 8 confirmation)
[16] = 100 μM, approx. 16 hours (Table 16, Example 8 confirmation)

Row | Substance | % Inhibition of human Factor 7 mRNA levels (human Factor 7 mRNA [1]) | percent inhibition of Factor 7 mRNA, relative to untreated control cells (human Factor 7 mRNA [2]; 3.125 nM) | percent inhibition of Factor 7 mRNA, relative to untreated control cells (human Factor 7 mRNA [2]; 12.5 nM) | percent inhibition of Factor 7 mRNA, relative to untreated control cells (human Factor 7 mRNA [2]; 25 nM) | percent inhibition of Factor 7 mRNA, relative to untreated control cells (human Factor 7 mRNA [2]; 50 nM) | percent inhibition of Factor 7 mRNA, relative to untreated control cells (human Factor 7 mRNA [2]; 100 nM) | percent inhibition of Factor 7 mRNA, relative to untreated control cells (human Factor 7 mRNA [2]) | percent inhibition of Factor 7 mRNA, relative to untreated control cells (human Factor 7 mRNA [3]; [5]) | percent inhibition of Factor 7 mRNA, relative to untreated control cells (human Factor 7 mRNA [3]; [6]) | percent inhibition of Factor 7 mRNA, relative to untreated control cells (human Factor 7 mRNA [3]; [7]) | percent inhibition of Factor 7 mRNA, relative to untreated control cells (human Factor 7 mRNA [3]; [8]) | percent inhibition of Factor 7 mRNA, relative to untreated control cells (human Factor 7 mRNA [3]; [9]) | percent inhibition of Factor 7 mRNA, relative to untreated control cells (human Factor 7 mRNA [3]; [10]) | percent inhibition of Factor 7 mRNA, relative to untreated control cells (human Factor 7 mRNA [3]; [11]) | percent inhibition of Factor 7 mRNA, relative to untreated control cells (human Factor 7 mRNA [3]; [12]) | percent inhibition of Factor 7 mRNA, relative to untreated control cells (human Factor 7 mRNA [3]; [13]) | percent inhibition of Factor 7 mRNA, relative to untreated control cells (human Factor 7 mRNA [3]; [14]) | percent inhibition of Factor 7 mRNA, relative to untreated control cells (human Factor 7 mRNA [3]; [15]) | percent inhibition of Factor 7 mRNA, relative to untreated control cells (human Factor 7 mRNA [3]; [16]) | % Inhibition (human Factor 7 mRNA [4]) | other results
1 | 422295 (antisense e[5mC]*eG*dA*dG*dT*dT*d[5mC]*dT*dG*d[5mC]*dA*dG*dG*dA*dG*e[5mC]*eG*eG*e[5mC]*e[5mC]) [compound 422295] | 74% | 17% | 44% | 64% | 80% | 85% | 22% | 10% | 8% | 37% | 58% | 68% | 80% | – | – | – | – | – | – | – | –
2 | 422142 (antisense eG*eA*eG*eT*eT*d[5mC]*dT*dG*d[5mC]*dA*dG*dG*dA*dG*d[5mC]*eG*eG*e[5mC]*e[5mC]*eT) [compound 422142] | 73% | 16% | 51% | 66% | 72% | 68% | 34% | 26% | 47% | 63% | 67% | 77% | 78% | 34% | 47% | 62% | 67% | 65% | 65% | – | –
3 | 422183 (antisense eG*e[5mC]*eG*d[5mC]*d[5mC]*dA*d[5mC]*d[5mC]*d[5mC]*dG*d[5mC]*d[5mC]*dG*dG*d[5mC]*dT*d[5mC]*eT*eG*e[5mC]) [compound 422183] | – | 28% | 56% | 78% | 84% | 88% | 37% | 16% | 28% | 37% | 44% | 59% | 71% | 2% | 3% | 24% | 50% | 64% | 71% | – | % Inhibition (human Factor 7 mRNA levels) (human Factor 7 mRNA [1]; oligonucleotides targeted to nucleobases 13760 to 13789 of SEQ ID NO: 1 (Table 10)): 79%
4 | 422217 (antisense eG*eA*eG*dT*dT*d[5mC]*dT*dG*d[5mC]*dA*dG*dG*dA*dG*d[5mC]*dG*dG*e[5mC]*e[5mC]*eT) [compound 422217] | 75% | 8% | 45% | 63% | 79% | 83% | 18% | 15% | 19% | 29% | 55% | 61% | 83% | – | – | – | – | – | – | – | –
5 | 422086 (antisense eT*eG*e[5mC]*eA*eT*dG*dG*dT*dG*dA*dT*dG*d[5mC]*dT*dT*e[5mC]*eT*eG*eA*eA) [compound 422086] | – | 8% | 46% | 65% | 83% | 90% | 26% | 20% | 34% | 44% | 63% | 75% | 84% | 25% | 48% | 74% | 82% | 86% | 90% | – | % Inhibition (human Factor 7 mRNA [1]; Table 13 (microwalk), 50 nM, lipofectin, approximately 24 hours): 81%
6 | 435800 (antisense eG*eG*dA*d[5mC]*d[5mC]*d[5mC]*dA*dA*dA*dG*dT*dG*eG*eG) [compound 435800] | – | – | – | – | – | – | – | – | – | – | – | – | – | – | – | – | – | – | – | 0% | –
7 | 435765 (antisense e[5mC]*eA*dA*dA*dG*dT*dT*d[5mC]*dT*d[5mC]*dT*dG*e[5mC]*e[5mC]) [compound 435765] | – | – | – | – | – | – | – | – | – | – | – | – | – | – | – | – | – | – | – | 1% | –
8 | 435797 (antisense eA*eA*dT*d[5mC]*dT*dT*dG*dG*d[5mC]*d[5mC]*d[5mC]*d[5mC]*eT*e[5mC]) [compound 435797] | – | – | – | – | – | – | – | – | – | – | – | – | – | – | – | – | – | – | – | 16% | –
9 | 435819 (antisense eT*eT*dT*dG*dT*d[5mC]*d[5mC]*dA*dG*dT*dA*dA*eG*eA) [compound 435819] | – | – | – | – | – | – | – | – | – | – | – | – | – | – | – | – | – | – | – | 1% | –
